Here are results for one compound from patent US20040063680A1, “Method of treating stroke” (priority 2003, published 2004).

The melting point is the temperature, or range, at which the solid turns liquid. For `CC(C)S(=O)(=O)NCC(C)(F)c1ccc(-c2ccc(CC#N)cc2)cc1` (stereo not shown) [Example 9, 2-{4-[4-(1-fluoro-1-methyl-2-{[(methylethyl)sulfonyl]amino}ethyl)phenyl]phenyl}ethanenitrile], the melting point lay in the range of 155 to 157 °C.
